Experimental data taken from patent US6747061B2, “N-substituted dithiocarbamates for the treatment of biological disorders” (AtheroGenics, Inc., priority 2000, dated 2004).
Like-named read-outs stand apart in the source and are kept apart here.

Legend:
[1] = system: cytokine induced oxidatively modified proteins in NHBE cells; test: OxyBlot oxidized protein analysis; type: cell-based, human; conditions: TNF + IL-4, FIG. 4
Procedure: The OxyBlot™ assay (Intergen) detects oxidative modification of proteins by reactive oxygen species such as hydroxynonenal. As a consequence of the modification, carbonyl groups are introduced into protein side chains by a site-specific mechanism. OxyBlot™ detects these carbonyl groups, which is a hallmark of the oxidation status of proteins.
Normal human bronchial epithelial cells (NHBE) were purchased from Clonetics. They were cultured in BEGM (Clonetics) media without retinoic acid. In a typical experiment, the cells were seeded in 24-well plates. Media was changed to BEGM without retinoic acid (RA) and hydrocortisone (HC) 24 hr before dosing. Cells were then exposed to compounds in fresh BEGM without RA and HC for 20 min at 37° C., subsequently stimulated with TNF (10 ng/ml) and IL-4 (20 ng/ml) purchased from Boehringer Mannheim for another 20 min at 37° C. All compounds were dissolved in DMSO and the final concentration of DMSO was 0.2%.
Cells were washed 3 times with cold PBS, and lysed in 100 μl/well 1×RIPA buffer (25 mM Tris pH7.6, 150 mM NaCl, 2 mM EDTA, 1% IGEPAC, 0.5% deoxycholate, 0.1% SDS), 50 mM DTT, 1 mM PMSF, […] leupeptin, 1 μl/ml aprotinin. The cell lysates were clarified by centrifugation. 5 μl of the lysates were mixed with 5 μl 12% SDS (OxyBlot™ kit) and 10 μl of 1×2,4-Dintirophenylhydrazin (DNPH) (OxyBlot™ kit). […]

HAEC = test: Proliferation of non-transformed HAEC cells (FIG. 1, CellTiter96); type: cell-based, Human; conditions: 10 μM dithiocarbamate + 0.1 μM 5-FU, or 0.1 μM 5-FU alone, 24-72 hours
Procedure: (§1) All primary cells and cell lines were commercially available. The transformed cell lines were grown in Dulbecco's Modified Eagle Media supplemented with 2 mM L-glutamine, 50 I.U. penicillin, 50 μg/ml streptomycin, nonessential amino acids and 10% heat-inactivated fetal bovine serum. HASM, HAEC and NHBE cells were cultured exactly as described by the commercial provider (Clonetics, San Diego, Calif.). All cell lines were grown at 37° C. in 5% CO2, with the media being changed every 48 hours.
(§2) For the experimental assays, cells were plated in 96-well plates and grown until ˜35% confluency was achieved. For the transformed cell lines, cells were plated at low density and grown for 72 hours prior to being stimulated, whereas the non-transformed cells were plated at a higher density and grown for 24 hours prior to being stimulated.
(§3) Cells were treated with dithiocarbamate (0.1-100 μM)±5FU (0.01-10 μM) and retreated after 48 hours when media was changed. Cell growth was assessed using the CellTiter96® assay system from Promega (Madison, Wis.). […]
(§4) Statistical significance was assessed using an ANOVA with the appropriate post-hoc analysis as well as Students t-tests. *=p<0.05 when compared to control-treated (DMSO) cells. #=p<0.05 when compared to 5FU-treated cells.

MCF-7 = test: Proliferation of MCF-7 cells (FIG. 1, CellTiter96); type: cell-based; conditions: 10 μM dithiocarbamate + 0.1 μM 5-FU, or 0.1 μM 5-FU alone, 24-72 hours
Procedure: as §1, §2, §3, §4

HASM = test: Proliferation of non-transformed HASM cells (FIG. 1, CellTiter96); type: cell-based, Human; conditions: 10 μM dithiocarbamate + 0.1 μM 5-FU, or 0.1 μM 5-FU alone, 24-72 hours
Procedure: as §1, §2, §3, §4

HeLa = test: Proliferation of HeLa cells (FIG. 1, CellTiter96); type: cell-based; conditions: 10 μM dithiocarbamate + 0.1 μM 5-FU, or 0.1 μM 5-FU alone, 24-72 hours
Procedure: as §1, §2, §3, §4

T98G = test: Proliferation of T98G cells (FIG. 1, CellTiter96); type: cell-based; conditions: 10 μM dithiocarbamate + 0.1 μM 5-FU, or 0.1 μM 5-FU alone, 24-72 hours
Procedure: as §1, §2, §3, §4

NHBE = test: Proliferation of non-transformed NHBE cells (FIG. 1, CellTiter96); type: cell-based, Human; conditions: 10 μM dithiocarbamate + 0.1 μM 5-FU, or 0.1 μM 5-FU alone, 24-72 hours
Procedure: as §1, §2, §3, §4

[2] = system: DLD-1 colorectal carcinoma cells; test: Anti-proliferative effect on DLD-1 cells (CellTiter96); type: cell-based; conditions: Homo sapiens, 5-FU alone 1 μM, read-out: proliferation, percent of control
Procedure: as §1, §2
(§5) Cells were treated with dithiocarbamate (0.1-100 μM)±5FU (0.01-10 μM) and retreated after 48 hours when media was changed. Cell growth was assessed using the CellTiter96® assay system from Promega (Madison, Wis.). Each experimental condition was performed in triplicate or quadruplicate, with the number of experiments for each cell line being three.
as §4

H1299 = test: Proliferation of H1299 cells (FIG. 1, CellTiter96); type: cell-based; conditions: 10 μM dithiocarbamate + 0.1 μM 5-FU, or 0.1 μM 5-FU alone, 24-72 hours
Procedure: as §1, §2, §3, §4

[3] = system: SNU-C5 colorectal carcinoma cells; test: Anti-proliferative effect on SNU-C5 cells (CellTiter96); type: cell-based; conditions: 5-FU alone 1 μM, read-out: proliferation, percent of control
Procedure: as §1, §2, §5, §4

Saos-2 = test: Proliferation of Saos-2 cells (FIG. 1, CellTiter96); type: cell-based; conditions: 10 μM dithiocarbamate + 0.1 μM 5-FU, or 0.1 μM 5-FU alone, 24-72 hours
Procedure: as §1, §2, §3, §4

Compound	inhibition of cytokine induced oxidatively modified proteins [1]	inhibition of proliferation (HAEC)	inhibition of proliferation (MCF-7)	inhibition of proliferation (HASM)	inhibition of proliferation (HeLa)	inhibition of proliferation (T98G)	inhibition of proliferation (NHBE)	activity at 1 µM ([2]; 24 HOURS) [%]	activity at 1 µM ([2]; 48 HOURS) [%]	activity at 1 µM ([2]; 72 HOURS) [%]	inhibition of proliferation (H1299)	activity at 1 µM ([3]; 24 HOURS) [%]	activity at 1 µM ([3]; 48 HOURS) [%]	activity at 1 µM ([3]; 72 HOURS) [%]	inhibition of proliferation (Saos-2)
S=C(S)N1CCCC1 [PTDC, pyrrolidine dithiocarbamate, reference compound]	inhibit	–	–	–	–	–	–	–	–	–	–	–	–	–	–
O=c1[nH]cc(F)c(=O)[nH]1 [5-FU, 5-fluorouracil]	–	no significant inhibition of proliferation	no significant inhibition of proliferation	no significant inhibition of proliferation	no significant inhibition of proliferation	no significant inhibition of proliferation	no significant inhibition of proliferation	90.8	85.8	113	no significant inhibition of proliferation	109	85.5	86.1	no significant inhibition of proliferation
